Measurements taken from US12503426B2, “Synthetic derivatives of oleoyl-lysophosphatidylinositol (oleoyl-LPI) and uses thereof” (LIPOVEXA SRL, priority 2017, dated 2025).
pEC50: −log10 of the molar value.

Key:
[1] = system: NCI-H716 cells; assay: GLP-1 secretion in NCI-H716 cells, in vitro human L cells model (Examples 30-33); assay type: cell-based; conditions: for Emax: Homo sapiens, NCI-H716, 2 h; for activity in inducing and/or increasing secretion of GLP-1 from cells of the GI tract: summary statement, compared with oleoyl-LPI; for GLP-1 biosynthesis and secretion from NCI-H716 L cells / level of GLP-1 biosynthesis and secretion compared with oleoyl-LPI: 20 μM, 2 hours; for GLP-1 biosynthesis and secretion from NCI-H716 L cells: normalized against DMSO vehicle control
Procedure: (§1) To evaluate the GLP-1 biosynthesis and secreting capabilities of the compounds of formula I in vitro using the human-derived cell line NCI-H716, 50,000 such cells were seeded per well of a 24-well plate pre-coated with a thin layer of Matrigel (0.15 mg/ml) in RPMI complete (RPMI additioned with FBS 10%, Glucose 2 g/L, Glutamine 4 mM, Sodium Bicarbonate 2 g/L, Pen/Strep 1× pH 7.4 at 37° C.) and incubated at 37° C. in humidified 5% CO2 atmosphere to induce endocrine differentiation.
After 48 hours, media was withdrawn and cells washed once with warm HBSS (Hank's balanced salt solution) and then incubated in duplicate for 2 hours with the different dilutions of the oleoyl-LPI, OEA, DMSO (as negative control), a test compound of formula I, and KR-62436 10 μg/ml, all dissolved in RPMI serum free (RPMI complete without FBS) at 37° C. in humidified 5% CO2 incubator. Supernatant were quickly collected on ice and stored at −80° C. before quantification of GLP-1 with a commercial ELISA (EMD Millipore) specific for active-GLP-1 species.
as §1, with “1×pH” for “1× pH”
After 48 hours, media was withdrawn and cells washed twice with pre-warm HBSS (Hank's balanced salt solution) and then incubated in duplicate for 2 hours with 250 μl of 20 μM of either oleoyl-LPI, DMSO (as negative control) or a test compound of formula I, and […], all dissolved in RPMI serum free (RPMI complete without FBS) at 37° C. in humidified 5% CO2 incubator. Compounds of formula I tested were ps297b, ps316a, ps318a, ps319a, ps321a and ps323.
Supernatant were quickly collected on ice and stored at −80° C. before quantification of GLP-1 with a commercial ELISA (EMD Millipore) specific for active-GLP-1 species (e.g., GLP-1 (7-36) amide) and […]).
Compounds of formula I were tested for GLP-1 secretion in NCI-H716 cells essentially as describe in examples 30 and 31 above. EC50 GLP-1 secretion readout results were standardized relative to maximum GLP-1 secretion obtained with oleoyl-LPI. EC50 readout results were rated as low GLP-1 secretion activity (0-20% of maximum GLP-1 secretion achieved with oleoyl-LPI), moderate (21-79% of maximum GLP-1 secretion achieved with oleoyl-LPI), and high GLP-1 activity (80% and more of maximum GLP-1 secretion achieved with oleoyl-LPI). Table 3 also outlines the R1, R2 and R3 substituents of the compounds of formula I.

[2] = system: Glutag cells; assay: GLP-1 secretion by Glutag cells; assay type: cell-based, murine; conditions: Glutag cells
Procedure: Glutag cells were maintained in low glucose DMEM (Sigma) (1 g/L) containing 2.0 mM L-glutamine, 1.0 mM sodium pyruvate and supplemented with 10% FBS, 100 IU/ml penicillin, 100 μg/ml streptomycin at a 37° C. and 5% CO2.
Approximately 80,000 Glutag cells were plated in poly-L-lysine-coated 24-well culture plates and grown to about 80% confluence. NCI-H716 cells were seeded on growth factor reduced Matrigel™ (Becton Dickinson, Bedford, MA) in DMEM medium, supplemented with 10% FBS the day before the experiment. For NCI-H716 cells, approximately 25,000 cells were needed for this secretion experiment in order to have good stimulation with lower basal GLP-1 secretion. In brief, Glutag and NCI-H716 cells were washed twice and then incubated for 2 h with FBS-free DMEM containing 1% (M:C) alone (negative control), 10 μM forskolin as positive control (Sigma-Aldrich), or with different concentrations of Oleoyl-LPI. M:C was used as a solvent to prepare stock solutions of fatty acid derivatives and inhibitors. For secretion experiments, medium and cells were collected separately.
In separate studies, GLUTag or NCI-H716 cells were pre-treated for 1 hour with medium alone (1% DMSO, negative control), PD98059 (50 μM; Sigma Chemical Co.), H89 (10 μM; Santa Cruz) followed by treatment with oleoyl-LPI (20 μM), OEA (10 μM), AR231453(1 μM), PMA (10 μM) or forskolin (10 μM, positive control) in the presence of inhibitors, as appropriate, for about 2 h. Medium GLP-1 secretion was calculated as total GLP-1 content of medium normalised for the basal secretion of the control.
In order to investigate the role of different LPI species in enteroendocrine cells, murine (Glutag) and human (NCI-H716) L-cells were stimulated with the following different species of LPI: Arachidonyl-LPI, Stearoyl-LPI, Heptadecenoyl-LPI and oleoyl-LPI, as well as with OEA and LPC. Experiments were performed in duplicate, n=4 and the level of total GLP-1 was measured by ELISA.

[3] = system: colonic cells of the GI tract obtained from guinea pig; assay: Ex vivo GLP-1 biosynthesis and secretion, guinea pig GI tract cells; assay type: cell-based
Procedure: To test for this, a pregnant guinea pig was anesthetized with isoflurane and sacrificed via intra-cardial injection of pentobarbital. Colon and rectum were quickly collected and intraluminal content washed out with ice-cold HBSS. After a thorough cleansing from the faecal material, and gentle scraping of the internal mucosa, the tissue was minced into 3 to 5-millimetre pieces and resuspended into 50 ml of ice cold HBSS. Pellet was spun down and washed again in 50 ml of ice-cold HBSS. Supernatant was carefully removed, and the epithelial fragments were then resuspended for 30 minutes at 37° C. into a 5 ml solution of HEPES 25 mM, collagenase-P 1 mg/ml in HBSS, pH 7.4 at 37° C.
The tissue was then pelleted and resuspended further for about 30 to 40 additional minutes at 37° C. within a 10 ml solution of 1 mg/ml collagenase-P as above.
After the digestion, about 40 ml of pre-warmed DMEM complete media was added (FBS 10%, glucose 4.5 g/L, glutamine 4 mM, sodium pyruvate 1 mM, HEPES 25 mM, sodium bicarbonate 3.7 g/L, Pen/Strep 1× and Ciprofloxacin 10 μg/ml pH 7.4 at 37° C.). Crypts and individual cells were isolated with a […] nylon strainer, spun down at 200 g for 5 minutes, resuspended into 10 ml of DMEM complete media and plated into 20 wells of a 24-well plate coated with a 3D gel of 3 mg/ml Matrigel (BD, Biosciences, Oxford, UK). After one day of incubation at 37° C. 5% CO2 in a humidified incubator, cells were washed with 500 μl of warm HBSS, and treated with 250 μl DMEM serum free (Complete medium without FBS) additioned with KR-62436 10 μg/ml and individually the following drugs or compounds: Forskolin and IBMX (20 μM each), oleoyl-LPI, and the two oleoyl-LPI analogs and/or derivatives ps297b (prepared as described in example 13) and ps316a (prepared as described in example 22) were all tested in quadruplicate at 20 μM.
After a 2-hour long incubation at 37 C 5% CO2, the supernatants were collected on ice, and quickly stored at […]. Active GLP-1 levels (7-37 amide and 7-36) were quantified on 50 μl of supernatant with an ELISA commercial kit (EMD Millipore). DMSO was used as a negative control, the combination of Forskolin and IBMX was included as positive control activators GLP-1. GLP-1 levels measured were standardized against the DMSO control.
The EC50 levels each one of oleoyl-LPI, compound ps297b and compound ps316a were also measured in quadruplicates at the conclusion of the 2 hour incubation. Guinea pig cells obtained as described above were also incubated with […] in quadruplicates and subjected to 2-hour long incubation at 37 C 5% CO2 as described above and EC50 levels measured.

[4] = NCI-H716 cells, standardized relative to maximum GLP-1 secretion obtained with oleoyl-LPI

SMILES | Emax [1, 4] | also measured
CCCCCCCC/C=C\CCCCCCCC(=O)Nc1ccc(C(=O)OC)cc1 [ps293a] | 0 to 20% | 
CCCCCCCC/C=C\CCCCCCCC(=O)Nc1ccc(C#N)cc1 [ps292a] | 0 to 20% | 
CCCCCCCC/C=C\CCCCCCCC(=O)Nc1cccc(C#N)c1 [ps315a] | 0 to 20% | 
CCCCCCCCCCCCCCCC(=O)Nc1ccc(C#N)cc1 [ps317b] | 0 to 20% | 
CCCCCCCC/C=C\CCCCCCCC(=O)Nc1ccc(-c2nnn[nH]2)cc1F [ps309a] | > 80% | activity in inducing and/or increasing secretion of GLP-1 from cells of the GI tract [1]: equal to or higher than oleoyl-LPI
CCCCC/C=C\C/C=C\CCCCCCCC(=O)Nc1ccc(-c2nnn[nH]2)cc1F [ps323b] | 0 to 20% | GLP-1 biosynthesis and secretion from NCI-H716 L cells [1]: able to mediate GLP-1 biosynthesis and secretion
CCCCCCCC/C=C\CCCCCCCC(=O)Nc1ccc(O)cc1 [ps300b] | 0 to 20% | 
CCCCCCCCCCCCCCCC(=O)Nc1ccc(-c2nnn[nH]2)cc1 [ps320c] | 0 to 20% | 
CCCCCCCC/C=C\CCCCCCCC(=O)Nc1ccc(-c2nnn[nH]2)c(F)c1 [ps312a] | 21 to 79% | 
CCCCCCCC/C=C\CCCCCCCC(=O)Nc1ccc(-c2nnn(C)n2)cc1 [ps298a] | 0 to 20% | 
CCCCC/C=C\C/C=C\CCCCCCCC(=O)Nc1ccc(C#N)cc1F [ps319] | 0 to 20% | GLP-1 biosynthesis and secretion from NCI-H716 L cells [1]: able to mediate GLP-1 biosynthesis and secretion
CC(C)c1noc(C2CCN(c3ncnc(Nc4ccc(S(C)(=O)=O)cc4F)c3[N+](=O)[O-])CC2)n1 [AR-231,453] |  | GLP-1 secretion ([2]; two hours treatment, compound alone): significantly increases GLP-1 secretion
CCCCC/C=C\C/C=C\CCCCCCCC(=O)Nc1ccc(-c2nnn[nH]2)cc1 [ps316a] | > 80% | GLP-1 levels compared with oleoyl-LPI ([3]; 20 μM, 2 hours): above those observed for the endogenous GRP119 ligand, oleoyl-LPI; GLP-1 biosynthesis and secretion ex vivo ([3]; 20 μM, 2 hours, standardized against DMSO control): stimulated biosynthesis and secretion; stability after incubation ex vivo ([3]; 2 hours incubation ex vivo): remained stable after 2 hours incubation ex vivo; pEC50 ([3]; Cavia porcellus, ex vivo incubation 2 hours, quadruplicates): 4.65; GLP-1 biosynthesis and secretion from NCI-H716 L cells [1]: able to mediate GLP-1 biosynthesis and secretion; level of GLP-1 biosynthesis and secretion compared with oleoyl-LPI ([1]; NCI-H716 cells): higher than those achieved from oleoyl-LPI; activity in inducing and/or increasing secretion of GLP-1 from cells of the GI tract [1]: equal to or higher than oleoyl-LPI
CCCCCCCC/C=C\CCCCCCCC(=O)Nc1ccc(C#N)cc1F [ps306a] | 0 to 20% | 
CCCCCCCC/C=C\CCCCCCCC(=O)Nc1ccc(OC)cc1 [ps301a] | 0 to 20% | 
CCCCCCCC/C=C\CCCCCCCC(=O)Nc1cccc(-c2nnn[nH]2)c1 [ps318a] | > 80% | GLP-1 biosynthesis and secretion from NCI-H716 L cells [1]: able to mediate GLP-1 biosynthesis and secretion; level of GLP-1 biosynthesis and secretion compared with oleoyl-LPI ([1]; NCI-H716 cells): higher than those achieved from oleoyl-LPI; activity in inducing and/or increasing secretion of GLP-1 from cells of the GI tract [1]: equal to or higher than oleoyl-LPI
CCCCCCCC/C=C\CCCCCCCC(=O)Nc1ccc(-c2nnn[nH]2)cc1.[Na+] [ps321a] |  | GLP-1 biosynthesis and secretion from NCI-H716 L cells [1]: able to mediate GLP-1 biosynthesis and secretion; GLP-1 secretion Activity relative to oleoyl-LPI [1, 4]: Low (low GLP-1 secretion activity (0-20% of maximum GLP-1 secretion achieved with oleoyl-LPI))
CCCCC/C=C\C/C=C\C/C=C\C/C=C\CCCC(=O)NCc1ccc(O)c(OC)c1 [Arvanil, N-arachidonoyl-vanillyl-amide] |  | antagonist activity for GPR119 (inventors' conclusion) [2]: weak antagonist for GPR119; GLP-1 secretion, combination treatment ([2]; Arvanil together with AR-231,453): significantly reduced GLP-1 secretion; GLP-1 secretion, combination treatment ([2]; Arvanil with either OEA or LPI): significantly enhanced GLP-1 secretion
CCCCCCCC/C=C\CCCCCCCC(=O)Nc1ccc(C(=O)O)cc1 [ps294a] | 0 to 20% | 
CCCCCCCC/C=C\CCCCCCCC(=O)Nc1ccc(C#N)c(F)c1 [ps308c] | 0 to 20% | 
CCCCCCCC/C=C\CCCCCCCC(=O)Nc1ccc(-c2nnnn2C)cc1 [ps298b] | 0 to 20% | 
CCCCC/C=C\C/C=C\CCCCCCCC(=O)Nc1ccc(C#N)cc1 [ps314b] | 0 to 20% | 
